From patent US20200405868A1, “GEL-FORMING POLYPEPTIDES” (priority 2018, published 2020)
Where a SMILES comes first, the peptide text is derived from it. [ ]: non-standard residue; d: D form. The star is where a group is joined. dPhe(4-Cl) = N[C@H](Cc1ccc(Cl)cc1)C(=O)O; d2Nal = N[C@H](Cc1ccc2ccccc2c1)C(=O)O; Palmitoyl = CCCCCCCCCCCCCCCC(=O)*; dCit = NC(=O)NCCC[C@@H](N)C(=O)O; d3Pal = N[C@H](Cc1cccnc1)C(=O)O

Key:
[1] = target: T1, GnRH receptor (GnRHR or LHRHR) (Homo sapiens, UniProt P30968); assay: GnRHR calcium flux assay (Discoverx), antagonistic; type: cell-based; conditions: for IC50: LHRH-stimulated
T1 sequence (P30968 1-328): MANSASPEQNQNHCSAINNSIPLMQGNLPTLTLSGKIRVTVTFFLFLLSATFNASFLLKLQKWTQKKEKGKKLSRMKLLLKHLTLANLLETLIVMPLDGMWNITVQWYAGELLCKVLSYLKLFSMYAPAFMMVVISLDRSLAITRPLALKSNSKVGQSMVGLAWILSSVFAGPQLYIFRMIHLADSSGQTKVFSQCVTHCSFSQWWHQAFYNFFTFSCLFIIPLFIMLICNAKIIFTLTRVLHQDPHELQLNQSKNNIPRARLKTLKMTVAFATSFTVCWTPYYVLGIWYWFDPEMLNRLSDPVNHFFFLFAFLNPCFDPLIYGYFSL
Source text: To study the bioactivities of conjugated and mutated peptides, we employed in vitro receptor-activation assays with cultured cells expressing recombinant melanocortin receptor 1 (MC1R), melanocortin receptor 4 (MC4R), CRH receptor 2 (CRHR2), PTH receptor 1 (PTHR1), or kappa opioid receptor (OPRK1). The agonistic activities toward MC1R, MC4R, CRHR2, PTHR1, and OPRK1 were assyed with an MC1R cAMP assay, an MC4R cAMP assay, a CRHR2 cAMP assay, a PTHR1 cAMP assay and an OPRK1 cAMP assay from Discoverx Inc. (Fremont, Calif.), respectively. The antagonistic activities toward bradykinin receptor 2 (BDKRB2) and GnRH receptor (GnRHR or LHRHR) were assayed with a BDKRB2 arrestin assay and a GnRHR calcium flux assay from Discoverx, respectively.
For the analysis of calcium flux, cell lines were expanded from freezer stocks and seeded in a total volume of 20 μL into black-walled, clear-bottom, Poly-D-lysine coated 384-well microplates and incubated at 37 C for the appropriate time prior to testing. Assays were performed in 1× Dye Loading Buffer consisting of 1× Dye, 1× Additive A and 2.5 mM Probenecid in HBSS/20 mM Hepes. Cells were loaded with dye prior to testing. Media was aspirated from cells and replaced with 20 μL Dye Loading Buffer. Cells were incubated for 30-60 minutes at 37 C. For agonist determination, cells were incubated with sample to induce response. After dye loading, cells were removed from the incubator and 10 μL HBSS/20 mM Hepes was added. Vehicle was included in the buffer when performing agonist dose curves to define the EC80 for antagonist assays. Cells were incubated for 30 minutes at room temperature in the dark to equilibrate plate temperature. Intermediate dilution of sample stocks was performed to generate 4× sample in assay buffer. Compound agonist activity was measured on a FLIPR Tetra (MDS), and calcium mobilization was monitored for 2 minutes and 10 μL 4× sample in HBSS/20 mM Hepes was added to the cells 5 seconds into the assay.
For antagonist determination, cells were pre-incubated with sample followed by agonist challenge at the EC80 concentration. Intermediate dilution of sample stocks was performed to generate 3× sample in assay buffer. After dye loading, cells were removed from the incubator and 10 μL 3× sample was added. Cells were incubated for 30 minutes at room temperature in the dark to equilibrate plate temperature. Vehicle concentration was 1%. Compound antagonistic activity was measured on a FLIPR Tetra (MDS), and calcium mobilization was monitored for 2 minutes and 10 μL EC80 agonist in HBSS/20 mM Hepes was added to the cells 5 seconds into the assay. The compound activity was analyzed using a CBIS data analysis suite (ChemInnovation, CA), and percentage activity is calculated using the following formula: % Activity=100%×(mean RFU of test sample−mean RFU of vehicle control)/(mean MAX RFU control ligand−mean RFU of vehicle control). For antagonist assays, percentage inhibition is calculated using the following formula: % Inhibition=100%×(1−(mean RFU of test sample−mean RFU of vehicle control)/(mean RFU of EC80 control−mean RFU of vehicle control)).

[2] = Compound gel-forming ability in water (visual inspection, tube tapping assay, tilted tube assay); type: physicochemical; conditions: for gel formation in aqueous solution, 6% / gel formation in aqueous solution, 11%: Table 3; for gel formation in aqueous solution, 6% / propensity to form gels, chimeric or mutated polypeptides, 6%: 6% w/w; for gel formation in aqueous solution, 11% / propensity to form gels, chimeric or mutated polypeptides, 11%: 11% w/w;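 as to all read-outs here: peptides mixed with de-ionized water at about 22-25 °C, judged after 20 min by eye plus tube tapping (10 taps, moves counted) and 90° tilt mobility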
Method: Determination of Compound Gel-forming Ability in Water: To determine the solubility of polypeptides at room temperature, 1, 2, 3, 4, 5, 20, or 100 mg of a selected peptide is weighed and deposited into a clear plastic or glass vial and an aliquot of de-ionized water was then added to the vial. The procedure takes place in a room which is maintained at approximately 22-25° C. […] Insoluble peptides sample retained the particles or paste-like characteristics after 20 min of reaction. In addition to visual inspection, we performed a tube tapping assay and a tilted tube assay to differentiate the gelling status of peptide solutions.
To determine the solubility of polypeptides at room temperature, 1, 2, 3, 4, 5, 20, or 100 mg of a selected peptide is weighed and deposited into a clear plastic vial and an aliquot of de-ionized water was then added to the vial. The procedure takes place in a room which is maintained at approximately 22-25° C. Polypeptide sample which is considered soluble dissolves instantly in water and stays as a clear solution without obvious macroscopic change in viscosity at 20 min after mixing with water. […] If macroscopic particles of peptides remain in the solution at 20 min after mixing with water, the peptide is considered insoluble or precipitated at the given concentration. In this case, the quality of peptides is further judged by two other criteria: (1) mobility following a tapping of the tube (tube tapping assay) and (2) mobility flowing tilting the tube by 900 (tilted tube assay). In the first assay, the tube is tapped with the finger for 10 times, and the number of times that the body of the solution changes position is recorded. An aqueous solution such as water will have a score of 9 or 10 in this assay; meaning that the body of the liquid moves every time when one taps the tube. […] Those with moderate viscosity form liquid gel that changes the conformation slowly when the container tube is tapped with a finger or tilted. […] If macroscopic change in the position of the body of gel was observed 5-9 time out of 10 separate tapping tests, the gel is considered a liquid gel. The high viscosity of a liquid gel is further confirmed using the tilted tube assay. […] If the liquid or gel body takes more than 15 seconds to flow to the bottom of the tilted tube, the resulting aqueous mass is considered a liquid gel.
To allow systematic analysis of the gel-forming ability, the assay was first conducted at a peptide concentration of 11% w/w in aqueous solution. The peptides analyzed included functional regulators of cell surface receptors, enzymes, complement factors, antimicrobial peptides, immunomodulators, therapeutic peptides, cell-penetrating peptide, antigens, matrikines, and analogs of CGRP, adrenomedullin and adenomedullin 2 (or intermedin).

[3] = target: melanocortin receptor 1 (MC1R) (Homo sapiens, UniProt Q01726); assay: MC1R cAMP assay (Discoverx), agonistic; type: cell-based
Method: (§1) The agonistic activities toward MC1R, MC4R, CRHR2, PTHR1, and OPRK1 were assyed with an MC1R cAMP assay, an MC4R cAMP assay, a CRHR2 cAMP assay, a PTHR1 cAMP assay and an OPRK1 cAMP assay from Discoverx Inc. (Fremont, Calif.), respectively. The antagonistic activities toward bradykinin receptor 2 (BDKRB2) and GnRH receptor (GnRHR or LHRHR) were assayed with a BDKRB2 arrestin assay and a GnRHR calcium flux assay from Discoverx, respectively.
(§2) For the analysis of Gs-coupled cAMP production, cAMP Hunter cell lines were expanded from freezer stocks, and cells were seeded in a total volume of 20 μL into white walled, 384-well microplates and incubated at 37 C for the appropriate time prior to testing. The cAMP modulation was determined using the DiscoverX HitHunter cAMP XS+ assay. For agonistic activity determination, cells were incubated with sample to induce response. Media was aspirated from cells and replaced with 15 μL 2:1 HBSS/10 mM Hepes: cAMP XS+ Ab reagent. Intermediate dilution of sample stocks was performed to generate 4× sample in assay buffer, and 5 μL of 4× sample was added to cells and incubated at 37 C or room temperature for 30 or 60 minutes. Vehicle concentration was 1%. The compound activity was analyzed using a CBIS data analysis suite (ChemInnovation, CA). For Gs-coupled agonistic assays, percentage activity is calculated using the following formula: % Activity=100%×(mean RLU of test sample−mean RLU of vehicle control)/(mean RLU of MAX control−mean RLU of vehicle control).

[4] = target: T2, CRH receptor 2 (CRHR2) (Homo sapiens, UniProt Q13324); assay: CRHR2 cAMP assay (Discoverx), agonistic; type: cell-based
T2 sequence (Q13324 1-411): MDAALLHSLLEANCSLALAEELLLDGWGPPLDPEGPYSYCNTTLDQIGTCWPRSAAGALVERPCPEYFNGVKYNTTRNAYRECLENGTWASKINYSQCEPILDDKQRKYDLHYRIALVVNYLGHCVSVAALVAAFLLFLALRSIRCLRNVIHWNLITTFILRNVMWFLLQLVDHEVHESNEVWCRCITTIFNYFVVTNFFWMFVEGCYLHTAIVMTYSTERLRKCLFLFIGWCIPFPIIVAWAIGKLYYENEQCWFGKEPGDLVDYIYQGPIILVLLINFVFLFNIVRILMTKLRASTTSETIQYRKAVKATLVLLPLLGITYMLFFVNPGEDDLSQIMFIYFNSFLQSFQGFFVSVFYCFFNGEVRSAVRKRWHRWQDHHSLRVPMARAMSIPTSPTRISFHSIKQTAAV
Method: as §1, §2

Chain of melanocortin receptor 1 (MC1R) (Q01726 whole entry): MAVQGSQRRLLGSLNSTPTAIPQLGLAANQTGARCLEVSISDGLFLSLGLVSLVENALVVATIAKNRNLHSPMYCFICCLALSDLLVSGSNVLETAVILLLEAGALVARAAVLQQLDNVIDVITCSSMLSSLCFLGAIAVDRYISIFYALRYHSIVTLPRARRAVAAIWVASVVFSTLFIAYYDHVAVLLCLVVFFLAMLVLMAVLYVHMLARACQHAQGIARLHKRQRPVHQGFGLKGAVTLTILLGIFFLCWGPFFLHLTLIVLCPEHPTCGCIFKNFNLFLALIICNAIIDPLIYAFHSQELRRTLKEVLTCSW

SMILES | Max Activity % of positive control [1] | gel formation in aqueous solution, 6% [2] | gel formation in aqueous solution, 11% [2] | IC50 [1] | propensity to form gels, chimeric or mutated polypeptides, 6% ([2]; Table 5) | propensity to form gels, chimeric or mutated polypeptides, 11% ([2]; Table 5) | further results
CC(=O)N[C@H](Cc1ccc2ccccc2c1)C(=O)N[C@H](Cc1ccc(Cl)cc1)C(=O)N[C@H](Cc1cccnc1)C(=O)N[C@@H](CO)C(=O)N[C@@H](Cc1ccc(O)cc1)C(=O)N[C@H](CCCNC(N)=O)C(=O)N[C@@H](CC(C)C)C(=O)N[C@@H](CCCNC(=N)N)C(=O)N1CCC[C@H]1C(=O)N[C@H](C)C(N)=O [Cetrorelix, reference compound] (Ac-[d2Nal][dPhe(4-Cl)][d3Pal]SY[dCit]LRP[dA]-NH2) | 91.4 % of positive control | – | – | 0.08 nM | – | – | –
CCCCCCCCCCCCCCCC(=O)N[C@@H](Cc1c[nH]cn1)C(=O)N[C@@H](CO)C(=O)N[C@@H](Cc1ccc(O)cc1)C(=O)N[C@H](Cc1ccc2ccccc2c1)C(=O)N[C@H](Cc1ccc(Cl)cc1)C(=O)N[C@H](Cc1cccnc1)C(=O)N[C@@H](CO)C(=O)N[C@@H](Cc1ccc(O)cc1)C(=O)N[C@H](CCCNC(N)=O)C(=O)N[C@@H](CC(C)C)C(=O)N[C@@H](CCCNC(=N)N)C(=O)N1CCC[C@H]1C(=O)N[C@H](C)C(N)=O [SEQ ID NO:203, Pal-HSY-(D-Nal)-(D-Cpa)-(D-Pal)-SY-(D-Cit)-LRP-(D-Ala)-NH2] (Palmitoyl-HSY[d2Nal][dPhe(4-Cl)][d3Pal]SY[dCit]LRP[dA]-NH2) | 109 % of positive control | – | – | < 0.51 nM | – | – | –
CCCCCCCCCCCCCCCC(=O)N[C@@H](Cc1c[nH]cn1)C(=O)N[C@@H](CO)C(=O)N[C@@H](Cc1ccc(O)cc1)C(=O)N[C@@H](CO)C(=O)N[C@@H](CCSC)C(=O)N[C@@H](CCC(=O)O)C(=O)N[C@@H](Cc1c[nH]cn1)C(=O)N[C@@H](Cc1ccccc1)C(=O)N[C@@H](CCCNC(=N)N)C(=O)N[C@@H](Cc1c[nH]c2ccccc12)C(=O)NCC(=O)N[C@@H](CCCCN)C(=O)N1CCC[C@H]1C(=O)N[C@H](C(=O)NCC(=O)N[C@@H](CCCCN)C(=O)N[C@@H](CCCCN)C(=O)N[C@@H](CCCNC(=N)N)C(=O)N[C@@H](CCCNC(=N)N)C(=O)N1CCC[C@H]1C(=O)N[C@H](C(=O)N[C@@H](CCCCN)C(=O)N[C@H](C(=O)N[C@@H](Cc1ccc(O)cc1)C(=O)N1CCC[C@H]1C(=O)O)C(C)C)C(C)C)C(C)C [SEQ ID NO:226] | – | – | SS (SS for semisolid gel) | – | – | SS (An ability to form semisolid gel is represented by an SS) | EC50 [3]: nanomolar; Max Activity % of positive control [3]: 115 % of positive control

Further lines, with some results ahead:

Max Activity % of positive control [1] | gel formation in aqueous solution, 6% [2] | gel formation in aqueous solution, 11% [2] | SMILES | IC50 [1] | propensity to form gels, chimeric or mutated polypeptides, 6% ([2]; Table 5) | propensity to form gels, chimeric or mutated polypeptides, 11% ([2]; Table 5) | further results
135 % of positive control | SS (SS for semisolid gel) | SS (SS for semisolid gel) | CCCCCCCCCCCCCCCC(=O)N[C@@H](CCCCN)C(=O)N[C@H](C(=O)N[C@@H](CCC(N)=O)C(=O)N[C@@H](CCCCN)C(=O)N[C@@H](CC(C)C)C(=O)N[C@@H](CO)C(=O)N[C@@H](C)C(=O)N1CCC[C@H]1C(=O)N[C@H](C(=O)N[C@@H](CC(=O)O)C(=O)N1CCC[C@H]1C(=O)N[C@@H](CO)C(=O)N[C@@H](CO)C(=O)N1CCC[C@H]1C(=O)N[C@@H](Cc1c[nH]cn1)C(=O)N[C@@H](CO)C(=O)N[C@@H](Cc1ccc(O)cc1)C(=O)NCCOCCOCC(=O)N[C@H](Cc1ccc2ccccc2c1)C(=O)N[C@H](Cc1ccc(Cl)cc1)C(=O)N[C@H](Cc1cccnc1)C(=O)N[C@@H](CO)C(=O)N[C@@H](Cc1ccc(O)cc1)C(=O)N[C@H](CCCNC(N)=O)C(=O)N[C@@H](CC(C)C)C(=O)N[C@@H](CCCNC(=N)N)C(=O)N1CCC[C@H]1C(=O)N[C@H](C)C(N)=O)C(C)C)C(C)C [SEQ ID NO:202] | – | SS (An ability to form semisolid gel is represented by an SS) | SS (An ability to form semisolid gel is represented by an SS) | gel formation at 6% w/w ([2]; 6% w/w in water): semisolid gel; gel formation at 11% w/w ([2]; 11% w/w in water): semisolid gel; propensity to form gels, chimeric or mutated polypeptides, 3% ([2]; Table 5, 3% w/w): AS/IS
– | SS (SS for semisolid gel) | SS (SS for semisolid gel) | CCCCCCCCCCCCCCCC(=O)N[C@@H](CCCCN)C(=O)N[C@@H](CO)C(=O)N[C@@H](Cc1ccc(O)cc1)C(=O)N[C@@H](CO)C(=O)N[C@@H](CC(C)C)C(=O)N[C@@H](CC(=O)O)C(=O)N[C@H](C(=O)N1CCC[C@H]1C(=O)N[C@H](C(=O)N[C@@H](CC(N)=O)C(=O)N[C@H](C(=O)N[C@@H](CCSC)C(=O)N[C@@H](CC(N)=O)C(=O)N[C@@H](CC(C)C)C(=O)N[C@@H](CC(C)C)C(=O)N[C@@H](Cc1ccccc1)C(=O)N[C@@H](CC(N)=O)C(=O)N[C@H](C(=O)N[C@@H](C)C(=O)N[C@@H](CCCCN)C(=O)N[C@@H](C)C(=O)N[C@@H](CCCCN)C(=O)N[C@@H](CC(N)=O)C(=O)N[C@@H](CC(C)C)C(=O)N[C@@H](CCCNC(=N)N)C(=O)N[C@@H](C)C(=O)N[C@@H](CCC(N)=O)C(=O)N[C@@H](C)C(=O)N[C@@H](C)C(=O)N[C@@H](C)C(=O)N[C@@H](CC(N)=O)C(=O)N[C@@H](C)C(=O)N[C@@H](Cc1c[nH]cn1)C(=O)N[C@@H](CC(C)C)C(=O)N[C@@H](CCSC)C(=O)N[C@@H](C)C(=O)N[C@@H](CCC(N)=O)C(=O)N[C@H](C(N)=O)[C@@H](C)CC)[C@@H](C)CC)[C@@H](C)CC)[C@@H](C)O)C(C)C [SEQ ID NO:231] (Palmitoyl-KSYSLDVPTNIMNLLFNIAKAKNLRAQAAANAHLMAQI-NH2) | – | SS (An ability to form semisolid gel is represented by an SS) | SS (An ability to form semisolid gel is represented by an SS) | EC50 [4]: 5.7 nM; Max Activity % of positive control [4]: 78 % of positive control
